#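 Five concentrations, 48 hours, 96-well plates. Here, GI50 denotes the concentration required for 50% inhibition of growth. TGI is the concentration that stops growth completely.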
# Columns and labels:
# Test in all cases: growth of human tumour cells (NCI), 48 h
# SN12C renal = system: SN12C renal
# SK-MEL-2 melanoma = system: SK-MEL-2 melanoma
# UACC-257 melanoma = system: UACC-257 melanoma
# LOX IMVI melanoma = system: LOX IMVI melanoma
# COLO 205 colon = system: COLO 205 colon
# SK-MEL-5 melanoma = system: SK-MEL-5 melanoma
# M14 melanoma = system: M14 melanoma
# SF-295 CNS = system: SF-295 CNS
# SR leukemia = system: SR leukemia
# EKVX NSCLC = system: EKVX NSCLC
# DU-145 prostate = system: DU-145 prostate
# CCRF-CEM leukemia = system: CCRF-CEM leukemia
# IGROV1 ovarian = system: IGROV1 ovarian
# SF-539 CNS = system: SF-539 CNS
# NCI-H522 lung = system: NCI-H522 lung
# BT-549 breast = system: BT-549 breast
# U251 CNS = system: U251 CNS
# UO-31 renal = system: UO-31 renal
# 786-0 renal = system: 786-0 renal
# RPMI-8226 leukemia = system: RPMI-8226 leukemia
# SK-MEL-28 melanoma = system: SK-MEL-28 melanoma
# UACC-62 melanoma = system: UACC-62 melanoma
# HCC-2998 colon = system: HCC-2998 colon
# SK-OV-3 ovarian = system: SK-OV-3 ovarian
# SF-268 CNS = system: SF-268 CNS
# TK-10 renal = system: TK-10 renal
# PC-3 prostate = system: PC-3 prostate
# NCI-H460 lung = system: NCI-H460 lung
# OVCAR-3 ovarian = system: OVCAR-3 ovarian
# SNB-19 CNS = system: SNB-19 CNS
# HOP-92 NSCLC = system: HOP-92 NSCLC
# HT29 colon = system: HT29 colon
# MCF7 breast = system: MCF7 breast
# OVCAR-5 ovarian = system: OVCAR-5 ovarian
# A498 renal = system: A498 renal
# OVCAR-4 ovarian = system: OVCAR-4 ovarian
# NCI-H226 lung = system: NCI-H226 lung
# RXF 393 renal = system: RXF 393 renal
# T-47D breast = system: T-47D breast
# HCT-15 colon = system: HCT-15 colon
# NCI-H23 lung = system: NCI-H23 lung
# K-562 leukemia = system: K-562 leukemia
# MALME-3M melanoma = system: MALME-3M melanoma
# MOLT-4 leukemia = system: MOLT-4 leukemia
# HCT-116 colon = system: HCT-116 colon
# MDA-MB-231 breast = system: MDA-MB-231 breast
# A549 NSCLC = system: A549 NSCLC
# NCI/ADR-RES ovarian = system: NCI/ADR-RES ovarian
# HOP-62 NSCLC = system: HOP-62 NSCLC
# MDA-MB-435 = system: MDA-MB-435
# HS 578T breast = system: HS 578T breast
# CAKI-1 renal = system: CAKI-1 renal
# SW-620 colon = system: SW-620 colon
# OVCAR-8 ovarian = system: OVCAR-8 ovarian
# SNB-75 CNS = system: SNB-75 CNS
# HL-60(TB) leukemia = system: HL-60(TB) leukemia
# ACHN renal = system: ACHN renal
# KM12 colon = system: KM12 colon
smiles,measurement,setting,value
O=C(N/N=C/c1ccc(Cl)cc1Cl)c1ccc2nc(-c3ccc(Cl)cc3)[nH]c2c1,GI50,SN12C renal,1.96 µM
same,TGI,SN12C renal,4.26 µM
same,GI50,SK-MEL-2 melanoma,2.09 µM
same,TGI,SK-MEL-2 melanoma,4.64 µM
same,GI50,UACC-257 melanoma,2.14 µM
same,TGI,UACC-257 melanoma,4.72 µM
same,GI50,LOX IMVI melanoma,1.57 µM
same,TGI,LOX IMVI melanoma,2.94 µM
same,GI50,COLO 205 colon,1.55 µM
same,TGI,COLO 205 colon,3.25 µM
same,GI50,SK-MEL-5 melanoma,1.81 µM
same,TGI,SK-MEL-5 melanoma,3.39 µM
same,GI50,M14 melanoma,1.65 µM
same,TGI,M14 melanoma,3.84 µM
same,GI50,SF-295 CNS,1.86 µM
same,TGI,SF-295 CNS,3.5 µM
same,GI50,SR leukemia,1.01 µM
same,TGI,SR leukemia,3.95 µM
same,GI50,EKVX NSCLC,1.82 µM
same,TGI,EKVX NSCLC,3.68 µM
same,GI50,DU-145 prostate,1.76 µM
same,TGI,DU-145 prostate,3.44 µM
same,GI50,CCRF-CEM leukemia,1.43 µM
same,TGI,CCRF-CEM leukemia,9.03 µM
same,GI50,IGROV1 ovarian,1.5 µM
same,TGI,IGROV1 ovarian,2.98 µM
same,GI50,SF-539 CNS,1.7 µM
same,TGI,SF-539 CNS,3.17 µM
same,GI50,NCI-H522 lung,2.24 µM
same,TGI,NCI-H522 lung,5.85 µM
same,GI50,BT-549 breast,4.93 µM
same,TGI,BT-549 breast,21.3 µM
same,GI50,U251 CNS,2.1 µM
same,TGI,U251 CNS,4.18 µM
same,GI50,UO-31 renal,1.58 µM
same,TGI,UO-31 renal,2.99 µM
same,GI50,786-0 renal,1.79 µM
same,TGI,786-0 renal,3.48 µM
same,GI50,RPMI-8226 leukemia,1.16 µM
same,TGI,RPMI-8226 leukemia,3.51 µM
same,GI50,SK-MEL-28 melanoma,1.58 µM
same,TGI,SK-MEL-28 melanoma,3.04 µM
same,GI50,UACC-62 melanoma,1.78 µM
same,TGI,UACC-62 melanoma,3.4 µM
same,GI50,HCC-2998 colon,1.82 µM
same,TGI,HCC-2998 colon,3.44 µM
same,GI50,SK-OV-3 ovarian,1.79 µM
same,TGI,SK-OV-3 ovarian,4.31 µM
same,GI50,SF-268 CNS,2.08 µM
same,TGI,SF-268 CNS,4.35 µM
same,GI50,TK-10 renal,2.06 µM
same,TGI,TK-10 renal,4.3 µM
same,GI50,PC-3 prostate,1.55 µM
same,TGI,PC-3 prostate,3.3 µM
same,GI50,NCI-H460 lung,1.56 µM
same,TGI,NCI-H460 lung,3.13 µM
same,GI50,OVCAR-3 ovarian,1.84 µM
same,TGI,OVCAR-3 ovarian,3.39 µM
same,GI50,SNB-19 CNS,2.34 µM
same,TGI,SNB-19 CNS,5.06 µM
same,GI50,HOP-92 NSCLC,1.67 µM
same,TGI,HOP-92 NSCLC,3.53 µM
same,GI50,HT29 colon,1.97 µM
same,TGI,HT29 colon,5.47 µM
same,GI50,MCF7 breast,1.15 µM
same,TGI,MCF7 breast,2.56 µM
same,GI50,OVCAR-5 ovarian,1.85 µM
same,TGI,OVCAR-5 ovarian,3.97 µM
same,GI50,A498 renal,1.74 µM
same,TGI,A498 renal,4.94 µM
same,GI50,OVCAR-4 ovarian,1.74 µM
same,TGI,OVCAR-4 ovarian,3.29 µM
same,GI50,NCI-H226 lung,1.77 µM
same,TGI,NCI-H226 lung,3.48 µM
same,GI50,RXF 393 renal,1.61 µM
same,TGI,RXF 393 renal,3.27 µM
same,GI50,T-47D breast,1.79 µM
same,TGI,T-47D breast,3.83 µM
same,GI50,HCT-15 colon,1.42 µM
same,TGI,HCT-15 colon,3.03 µM
same,GI50,NCI-H23 lung,1.93 µM
same,TGI,NCI-H23 lung,4.43 µM
same,GI50,K-562 leukemia,0.969 µM
same,TGI,K-562 leukemia,3.23 µM
same,GI50,MALME-3M melanoma,1.55 µM
same,TGI,MALME-3M melanoma,3.15 µM
same,GI50,MOLT-4 leukemia,1.55 µM
same,TGI,MOLT-4 leukemia,4.81 µM
same,GI50,HCT-116 colon,1.45 µM
same,TGI,HCT-116 colon,3.51 µM
same,GI50,MDA-MB-231 breast,1.85 µM
same,TGI,MDA-MB-231 breast,3.77 µM
same,GI50,A549 NSCLC,2.16 µM
same,TGI,A549 NSCLC,4.53 µM
same,GI50,NCI/ADR-RES ovarian,1.83 µM
same,TGI,NCI/ADR-RES ovarian,4.44 µM
same,GI50,HOP-62 NSCLC,1.8 µM
same,TGI,HOP-62 NSCLC,4.1 µM
same,GI50,MDA-MB-435,1.73 µM
same,TGI,MDA-MB-435,3.35 µM
same,GI50,HS 578T breast,2.28 µM
same,TGI,HS 578T breast,5.27 µM
same,GI50,CAKI-1 renal,1.7 µM
same,TGI,CAKI-1 renal,3.29 µM
same,GI50,SW-620 colon,1.83 µM
same,TGI,SW-620 colon,3.69 µM
same,GI50,OVCAR-8 ovarian,2.11 µM
same,TGI,OVCAR-8 ovarian,4.74 µM
same,GI50,SNB-75 CNS,1.59 µM
same,TGI,SNB-75 CNS,3.62 µM
same,GI50,HL-60(TB) leukemia,1.85 µM
same,TGI,HL-60(TB) leukemia,6.53 µM
same,GI50,ACHN renal,1.74 µM
same,TGI,ACHN renal,3.17 µM
same,GI50,KM12 colon,2.03 µM
same,TGI,KM12 colon,4.46 µM

# From PubChem BioAssay (NCI)
